Assay: Human HepG2 cell viability assay in 384 well format
Assay type: toxicity, cell-based
Parameters: dose 125 nL, time 70.5 hour; concentration not given beside the values
Conditions: HepG2 cells, read-out: Inhibition

SMILES	cytotoxicity at 70.5 h [%]
Cc1cc(Cl)ccc1NCc1cnn(C2CCS(=O)(=O)C2)c1 (stereo not drawn)	5.78
COc1ccc(CNC(=O)NCc2ccc(C)cc2)cn1	-7.46
COc1ccc(CNC(=O)NCc2ccc(C(N)=O)cc2)cn1	-2.22
Cc1ncc(CN(C)C(=O)Nc2ccc(CN3CCOC3=O)cc2)s1	-7.05
NC(=O)C1CCN(C(=O)CCCc2ccc(Cl)c(Cl)c2)CC1	-6.88
Cc1ncc(CN(C)C(=O)Nc2cccc(C(=O)N3CCOCC3)c2)s1	-2.6
Cn1c(=O)oc2ccc(NC(=O)N3CCc4ccccc4C3)cc21	2.84
O=C(NS(=O)(=O)c1ccc(C2CCCCC2)cc1)C1COCCO1 (stereo not drawn)	-4.85
CCn1cc(NC(=O)NC(CO)Cc2c[nH]c3ccccc23)cn1 (stereo not drawn)	-4.69
CC(C)C1CCCN1C(=O)c1ccc(-n2ncc(C#N)c2N)cc1 (stereo not drawn)	-5.76
COc1ccc(CNC(=O)NCc2nc(C)c(C)s2)cn1	-5.21
CCOc1cc(CNC(=O)NCc2nc(C)c(C)s2)ccn1	-5.57
Cn1ncnc1CCNC(=O)c1cc(Cl)c(Cl)n1C	-2.76
O=S1(=O)CCC(n2cc(CNCC3(c4ccccc4)CC3)cn2)C1 (stereo not drawn)	30.7
Cc1cc(Cl)cc(C)c1CNC1CCN(CC(=O)N(C)C)CC1	-2.67
CCN(Cc1ccoc1)C(=O)NC1CCN(CC2CCCC2)CC1	-6.01
CCN(Cc1ccoc1)C(=O)NC1CCN(CC=C(C)C)CC1	6.72
Cn1c(SCC(O)COCc2ccc(Cl)cc2)nnc1C1CC1 (stereo not drawn)	-3.52
CCn1cc(S(=O)(=O)NC(CO)Cc2c[nH]c3ccccc23)cn1 (stereo not drawn)	-7.79
Cn1c(SCC(O)COCc2ccccc2Cl)nnc1C1CC1 (stereo not drawn)	-8.57
Cc1noc(CCCC(=O)N2CCCCC2c2nccs2)n1 (stereo not drawn)	32
O=S(=O)(NC(CO)Cc1c[nH]c2ccccc12)c1cncc(F)c1 (stereo not drawn)	-4.62
CC(C)(C)c1ncc(CNc2ccn(CCc3ccncc3)n2)s1	-10.2
Cc1cc(N2CCOCC2)ccc1NC(C)c1nc(C(C)C)no1 (stereo not drawn)	-0.714

SMILES	cytotoxicity at 70.5 h [%]
Cc1noc(C(C)Nc2ccc(N3CCOCC3)cc2C)n1 (stereo not drawn)	-4.53
c1ccc2nc(N3CCCC3c3nnc4n3CCCCC4)cnc2c1 (stereo not drawn)	0.321
Cc1cc(NC(=O)C(C)Nc2cccc(COCc3ccco3)c2)no1 (stereo not drawn)	-13.8
Cc1cc(N2CCCC2c2nnc3n2CCCCC3)nc(C)n1 (stereo not drawn)	-3.38
Cc1ccc(NS(=O)(=O)c2cnn(-c3ccccc3)c2)c(C(=O)O)c1	-5.8
CC(C)c1noc(CN(CCC2CCCCC2)CC(N)=O)n1	-3.41
COCCN(C(=O)c1ccn(-c2ccc(OC)cc2)n1)C(C)C(N)=O (stereo not drawn)	20.6
CCSc1ccc(C(=O)N2CCCCC2C(=O)N2CCCC2)cn1 (stereo not drawn)	-0.733
Clc1cncc(N2CCCC2c2nnc3n2CCCCC3)n1 (stereo not drawn)	-17.1
CC(CC(=O)NS(C)(=O)=O)C1CCCCC1 (stereo not drawn)	-13.9
CCSc1ccc(C(=O)N2CCCCC2C(=O)NC(C)(C)C)cn1 (stereo not drawn)	-7.45
CCc1cc(NC(=O)C2CCCN(C(=O)NCC(C)C)C2)[nH]n1 (stereo not drawn)	-17.1
CCc1cc(NC(=O)C2CCCN(C(=O)c3ccncc3)C2)[nH]n1 (stereo not drawn)	-10.6
COc1ccc(-n2ccc(C(=O)N(C)C(C)C3(C)CC3)n2)cc1 (stereo not drawn)	21.1
COCC(O)CNC(=O)Nc1c(F)cc(F)cc1-c1ccccc1 (stereo not drawn)	-11.2
O=C(O)CCN(Cc1ccc(F)c(F)c1)C(=O)C1CC1	-11.3
Cc1cc(F)ccc1-n1cc(O)c(C(=O)NCC2(O)CCC2)n1	28.4
COCCCN(C)C(=O)c1cccc(Nc2cnccn2)c1	24.1
Cc1noc(CCCC(=O)N(CCC(=O)O)Cc2ccc(F)c(F)c2)n1	-3.72
Cc1cc(N2CCCC2Cn2nc(C)cc2C)n2ncnc2n1 (stereo not drawn)	29
COc1ccc(NC(=O)CSc2nc(C)c(C)c(C)c2C#N)cn1	-2.39
COc1ccc(C(C)NC(=O)NCCNc2ccccn2)c(OC)c1 (stereo not drawn)	27.8
COc1cc(C)nc(N2CCN(C(C)c3nc(C4CC4)no3)CC2)n1 (stereo not drawn)	-10.4
Cc1cc(N2CCCCC2Cn2nc(C)cc2C)n2ncnc2n1 (stereo not drawn)	-4.18

SMILES	cytotoxicity at 70.5 h [%]
COc1ccc(C(C)NC(=O)NCCc2ccc(C)nc2)c(OC)c1 (stereo not drawn)	24
NC(=O)CCC1CCCN(c2ccc3c(Cl)ccnc3c2F)C1 (stereo not drawn)	-6.43
COc1ccc(S(=O)(=O)N2CCC(OCc3ccccn3)C2)cc1Br (stereo not drawn)	-9.24
CC(Cn1cccn1)NC(=O)N(C)Cc1cnn(C)c1 (stereo not drawn)	-7.21
CCCNC(c1cccnc1)c1ccc(F)cc1F (stereo not drawn)	42.9
CCNC(c1ccc(F)cc1)c1cccnc1 (stereo not drawn)	-19.7
CN(Cc1cnn(C)c1)C(CO)c1cccc(Br)c1 (stereo not drawn)	-16.5
CN(Cc1cnn(C)c1)C(=O)c1ccc(Cl)c(N2CCNC2=O)c1	-22.2
Cc1oc(-c2ccsc2)nc1CN1CCCC(c2ccnn2C)C1 (stereo not drawn)	-23.6
Cc1cc(CS(=O)(=O)C(C)C(=O)N(C)c2ccccc2)on1 (stereo not drawn)	-28.7
CCCNC(=O)c1cccc(CNCc2csc(CC)n2)c1	-106
CCCNC(=O)c1cccc(CNCc2csc(C(C)C)n2)c1	-78.5
CCS(=O)(=O)NC(CCSC)C(=O)Nc1cc(F)ccc1C (stereo not drawn)	-36.1
Cc1ccc(C(NCC(=O)N2CCNC(=O)C2)C(F)(F)F)cc1 (stereo not drawn)	-113
CC(NC(=O)Nc1ccc(-n2cncn2)cc1)C(=O)NC(C)(C)C (stereo not drawn)	-29.6
CCC(C)NC(=O)c1cccc(CNCc2csc(C(C)C)n2)c1 (stereo not drawn)	-89.9
O=C(CN(CC(O)c1ccc(F)cc1)C1CC1)NCc1cccs1 (stereo not drawn)	-114
CNS(=O)(=O)c1ccc(CNC(=O)N(CC(C)C)C(C)C)cc1	-96.5
CCN(C(=O)C(C)S(=O)(=O)Cc1nc(C)no1)c1ccccc1 (stereo not drawn)	-96.7
COc1ccc(NC(C)c2nnnn2-c2ccccc2)cn1 (stereo not drawn)	-96.1
COc1ccc(NC(C)c2nnnn2-c2ccccc2)cc1F (stereo not drawn)	-95.4
CCNc1nc(C(=O)N(C)Cc2nc(CC)no2)cs1	-109
NC(=O)CCSc1ccccc1NCc1ccc(Cl)s1	-95
CC(NC(=O)CCC(C)(C)C)C(=O)Nc1ccc(-n2cncn2)cc1 (stereo not drawn)	-24.9

SMILES	cytotoxicity at 70.5 h [%]
CC(C)(C)c1nc(CNc2ccccc2SCCC(N)=O)cs1	-107
CCC(C)(C)CC(=O)NC(C)C(=O)Nc1ccc(-n2cncn2)cc1 (stereo not drawn)	-81.3
CC(C)CCS(=O)(=O)N1CCCC(c2nncn2C(C)C)C1 (stereo not drawn)	-33.9
c1ccc(CNc2ccccc2N2CCCC2)nc1	-18.2
CC(C)NC(=O)CNC(C)c1c(F)cccc1Cl (stereo not drawn)	-79.9
CCOCCN1CCN(CC(O)c2ccc(OC)cc2)CC1 (stereo not drawn)	36.2
CSCc1cc(C(=O)NC2(C#N)CCSC2)ccc1F (stereo not drawn)	-8.71
CN1CCN(c2ccc(Br)cc2NC(=O)c2ccco2)CC1	2.12
CCN(C(=O)c1cc(C)oc1C)C1CC1	-4.05
CC(C)N(CCCNC(=O)C1CCOCC1)S(C)(=O)=O	-5.89
CC1(c2ccc(Br)cc2)CC(=O)N(CCC(N)=O)C1=O (stereo not drawn)	-6.18
CC(C)N(CCCNC(=O)C1CCCN(C(N)=O)C1)S(C)(=O)=O (stereo not drawn)	-5.29
CCN(C(=O)Nc1cc(C)on1)C(C)c1cccc(O)c1 (stereo not drawn)	-9.79
CCOCCN1CCN(CC(O)c2ccc(C)c(C)c2)CC1 (stereo not drawn)	-10.1
CC(CO)NC(=O)c1ccc(NCc2ccc(F)c(F)c2)cc1 (stereo not drawn)	-0.038
COCCNC(=O)Cn1cc(NC(=O)c2cc(Cl)c(Cl)n2C)cn1	0.862
COCCNC(=O)Cn1cc(NC(=O)c2ccc(C(C)(C)C)cc2)cn1	33.3
CCOc1ccc(C(F)(F)F)cc1NC(=O)NCc1noc(C)n1	-8.58
N#CC1(NC(=O)c2ccc(F)c(Br)c2)CCSC1 (stereo not drawn)	-8.42
O=C(Nc1cccc(OCC(F)F)n1)c1ccncc1	-8.53
O=C(Nc1cccc(OCC(F)F)n1)c1ccncc1F	-6.41
CC(CO)NC(=O)c1ccc(NCc2cc(C#N)ccc2F)cc1 (stereo not drawn)	-0.552
O=C(CN(CC1CCC1)CC(F)(F)F)N1CCOCC1	-5.14
Cc1nc(CSCc2ccc(OCC(F)(F)F)nc2)no1	-7.83

SMILES	cytotoxicity at 70.5 h [%]
CCOc1cccc(CSC(C)c2nc(C)no2)n1 (stereo not drawn)	-3.8
Cc1ccc(S(=O)(=O)N(CCO)C2CC2)cc1N(C)C	2.04
COc1c(C)cnc(CN2CCCC2c2noc(C)n2)c1C (stereo not drawn)	3.95
CCn1cc(CNCCNc2ncc(Cl)cc2Cl)cn1	10.4
CCCNC(=O)c1[nH]nc(C2CC2)c1Br	-5.95
COC(=O)c1ccc(OCCn2cnc(C#N)n2)cc1	-24.3
N#Cc1ccc(CN(CC(N)=O)Cc2cccc(F)c2)cc1	-2.99
Cc1nc(CNC(=O)Nc2c(C)n[nH]c2C)cs1	-9.25
CN(CCc1cccc2ccccc12)Cc1nc(N)nc(N(C)C)n1	28.3
CC(C)N(CC(N)=O)C(=O)CCC(=O)c1ccc(F)cc1F	-6.11
Cc1cc(Br)ccc1C(=O)Nc1c(C(N)=O)n[nH]c1C	-9.24
Cc1ccc(F)c(C(=O)Nc2c(C(N)=O)n[nH]c2C)c1	-10.1
Cc1cccc(C(=O)Nc2c(C(N)=O)n[nH]c2C)c1C	-5.24
Cc1nnc(C(C)NCC2(c3c(F)cccc3F)CCCC2)o1 (stereo not drawn)	-2.47
Cc1ccc(C(=O)NCC2(O)CCOCC2)cc1Br	-7.13
CN(C)c1ccc(C(=O)NCC2(O)CCOCC2)cc1	-8.78
Cc1nnc(NCC2(c3ccc(Cl)cc3Cl)CCOCC2)c(C#N)c1C	13.2
Cc1nnc(NCC2(c3ccccc3)CC2)c(C#N)c1C	-0.882
Cc1ccccc1C1(CNc2nnc(C)c(C)c2C#N)CCOCC1	-6.42
Cn1cc(Br)c(=O)c(NS(=O)(=O)c2ccc(F)cc2)c1	16.4
Clc1ccc(OCCN2CCN(CCn3cncn3)CC2)cc1	13.2
NC(c1ccc(Cl)cc1)c1cccs1 (stereo not drawn)	9.24

Source: ChEMBL document CHEMBL3507680, “University of Dundee, Gates Library screen for HepG2 cell viability”
